The values that follow are results of earlier work, collected in patent US6469069B1, “Propofol composition containing sulfite” (Gensia Sicor Pharmaceuticals, Inc., priority 1998, dated 2002).

The subject of the data set is likely microbial contaminants. Conditions: 1% Diprivan (Zeneca) 0.1% Na2S2O5.

As to `O=S([O-])S(=O)(=O)[O-].[Na+].[Na+]` [sodium metabisulfite, Sodium metabisulfite], the “Preservative effect in propofol emulsion (in words)” value is listed as “completely ineffectual”.
